# Marks after values point to notes of the source that are not given here.
# Legend:
# RERF-LC-AI/TXL carcinoma [1] = assay: Antitumor efficacy against RERF-LC-AI/TXL human lung cancer fragment implanted subcutaneously in nude mice; settings: for % inhibition: day 24
# Description: (§1) Compound (1) was suspended in 1% methylcellulose solution (Wako, Osaka, 400 c.p., and distilled water) and was stored at 4° C. Paclitaxel (Sigma St. Louis, Mo.) was dissolved in dimethylsulfoxide (DMSO, Nakarai-Tesk, Tokyo) and stored at 4° C., and was prepared in a solution of 10% DMSO, 18% Cremophore RH-40 (Nikko Chemicals) and 72% distilled water before use.
# (§2) Female mice, 8 weeks old (strain BALB/c-nu/nu, CLEA Japan Inc., Tokyo) were obtained and adapted for 5 days at experimental conditions and used at 10 weeks old. Experimental conditions included temperature of 21-27° C.; relative humidity of 40-70%; ventilation>10 times/hour; fluorescent light for 12-hour light (8:00-20:00)/12-hour dark; ad libitium access to food (irradiated CA-1, CLEA Japan Inc., Tokyo) and water (Osaka city tap water).
# (§3) Statistical analyses versus control group and between selected groups were performed using a spreadsheet program to run Welch's test and Dunnett's multiple comparison test.
# (§4) Tumor size and body weight were scored at least twice a week throughout the experiment. Tumor size was captured utilizing CD-10C compatible electric calipers (Mitsutoyo Corp., Kawasaki) and animal weight was automatically captured from the balance (A/D, Tokyo). The tumor volume was calculated by the following formula: [Tumor volume=(Length×Width×Width)/2]. The relative tumor volume (RV) was calculated as RV=Vn/Vo, where Vn: tumor volume on day n, and Vo: initial tumor volume. Judgment was performed one day (Examples 6 and 9) or three days (Examples 7 and 8) after the last dosing.
# (§5) Animal experiments were performed using Tumor Measuring & Tracking System (VISIONS Co. Ltd., Tokyo). An experiment consisted of 8 mice per group (Examples 6 and 9) or 6 mice per group (Examples 7 and 8). Tumor samples were implanted subcutaneously into the back of mice (day 0). Tumor-implanted animals were randomized to groups based upon tumor volume and body weight when tumor volume reached approximately 100-200 mm^3. The control group was given vehicle (1% methylcellulose solution). The doses were calculated on the basis of up-to-date body weights of the mice (0.1 mL/10 g body weight). The mice were non-fasted during an entire course of the experiment.
# (§6) The tumor sample implanted was a fragment of RERF-LC-AI/TXL carcinoma. Implanted animals were randomized at 11 days. Compound (1) was orally administered daily for 14 days. Paclitaxel solution (DMSO/Cremophore/distilled water) was prepared as above. and administered intravenously 6 times (3 times per week×2, day 11, 13, 15, 18, 20 and 22).
# [2] = system: Ma44 human lung squamous cell carcinoma; settings: in vivo
# Description: as §1, §2, §3, §4, §5
# (§7) Ma44 human lung squamous cell carcinoma was maintained by in vitro passage with using Eagle's Minimum Essential Medium (Nissui Pharmaceutical Co., Tokyo) supplemented with 10% fetal calf serum (Life Technologies Inc, MD). Ma44 cells (5×10^5/0.1 mL) were implanted and the animals were randomized at 11 days. Compound (1) was orally administered daily for 14 days. Paclitaxel solution (DMSO/Cremophore/distilled water) was prepared as above and administered intravenously 6 times (3 times per week×2).
# [3] = system: BG-1-TR1 human ovarian cancer; assay: Antitumor efficacy against BG-1-TR1 human ovarian cancer implanted subcutaneously in nude mice
# Description: (§8) Compound (1) was suspended in 1% methylcellulose solution (Wako, Osaka, 400 c.p., and distilled water) and was stored at 4° C.
# as §2, §3, §4, §5
# The tumor sample implanted included BG-1-TR1 cells (3×10^6/0.1 ml of 5 mg/ml matrigel solution, BD Biosciences, Bedford, Mass.). Implanted animals were randomized at 20 days. Compound (1) was orally administered daily for 14 days from day 20 to 33.
# RERF-LC-AI/TXL carcinoma [4] = settings: in vivo
# Description: as §1, §2, §3, §4, §5, §6
# [5] = system: Ma44 human lung squamous cell carcinoma; assay: Antitumor efficacy against Ma44 human lung squamous cell carcinoma implanted subcutaneously in nude mice; settings: for % inhibition: day 27; for RV on day 27 (Mean +/- SD), relative tumor volume: nude mice; for growth inhibition (% inhibition): p<0.01
# Description: as §1, §2, §3, §4, §5, §7
# RERF-LC-AI carcinoma = assay: Antitumor efficacy against RERF-LC-AI human lung cancer fragment implanted subcutaneously in nude mice; settings: for % inhibition: day 26
# Description: as §8, §2, §3
# Tumor size and body weight were scored at least twice a week throughout the experiment. Tumor size was captured utilizing CD-10C compatible electric calipers (Mitsutoyo Corp., Kawasaki) and animal weight was automatically captured from the balance (A/D, Tokyo). The tumor volume was calculated by the following formula: [Tumor volume=(Length×Width×Width)/2]. The relative tumor volume (RV) was calculated as RV=Vn/Vo, where Vn: tumor volume on day n, and Vo: initial tumor volume.
# Animal experiments were performed using Tumor Measuring & Tracking System (VISIONS Co. Ltd., Tokyo). […] Tumor samples were implanted subcutaneously into the back of mice (day 0). Tumor-implanted animals were randomized to groups based upon tumor volume and body weight when tumor volume reached approximately 100-200 mm^3. The control group was given vehicle (1% methylcellulose solution). The doses were calculated on the basis of up-to-date body weights of the mice (0.1 mL/10 g body weight). The mice were non-fasted during an entire course of the experiment.
# The tumor sample implanted was a fragment of RERF-LC-AI carcinoma. Implanted animals were randomized at 10 days. Compound (1) was orally administered daily for 14 days.
# [6] = Body weight of treated mice (summary statement, Examples 1-4); format: in vivo
# Description: as §4
# [7] = 25 mg/kg x 14, oral daily, day 11-24
# [8] = 50 mg/kg x 14, oral daily, 5 surviving mice
# [9] = 20 mg/kg x 6, intravenous, day 10, 12, 14, 17, 19 and 21
# [10] = 20 mg/kg, maximum tolerated dose for nude mice in this schedule
compound,measurement,setting,value
"Cc1cc(NC(=O)C(=O)c2cc(Cc3ccc(C#N)cc3)n3ccccc23)sn1 [Compound (1), 2-(3-(4-cyanobenzyl)indolizin-1-yl)-N-(3-methylisothiazol-5-yl)-2-oxoacetamide]","MBWL, maximum body weight loss (% of initial)","RERF-LC-AI/TXL carcinoma [1]; 25 mg/kg x 14, oral daily",1%
same,"RV on day 24 (Mean +/- SD), relative tumor volume","RERF-LC-AI/TXL carcinoma [1]; 25 mg/kg x 14, oral daily, from day 10 to 23, nude mice",26.49 ± 13.41
same,% inhibition,"RERF-LC-AI/TXL carcinoma [1]; 25 mg/kg x 14, oral daily",36.2%
same,growth inhibition,"RERF-LC-AI/TXL carcinoma [1]; 50 mg/kg daily oral dosing, evaluation day 27",68.8%
same,"MBWL, maximum body weight loss (% of initial)","RERF-LC-AI/TXL carcinoma [1]; 50 mg/kg x 14, oral daily",3%
same,Toxic death,"RERF-LC-AI/TXL carcinoma [1]; 50 mg/kg x 14, oral daily, 1 mouse, on day 16",Toxic
same,"RV on day 24 (Mean +/- SD), relative tumor volume","RERF-LC-AI/TXL carcinoma [1]; 50 mg/kg x 14, oral daily, 7 surviving mice",15.01 ± 6.45
same,% inhibition,"RERF-LC-AI/TXL carcinoma [1]; 50 mg/kg x 14, oral daily",63.9%
same,percent inhibition of cancer cells,"RERF-LC-AI/TXL carcinoma [1]; oral administration, RERF/TXL, summary",≤ 67%
same,mice found dead,[2],one of eight mice
same,% inhibition,"[3]; 12.5 mg/kg x 14, oral daily",27.4%
same,"MBWL, maximum body weight loss (% of initial)","[3]; 12.5 mg/kg x 14, oral daily",0%
same,"RV (Mean +/- SD), relative tumor volume on day 34","[3]; 12.5 mg/kg x 14, oral daily, from day 20 to 33",1.6 ± 0.7
same,body weight losses,[3]; 25 mg/kg and 50 mg/kg daily oral dosing groups,mild
same,% inhibition,"[3]; 25 mg/kg x 14, oral daily",27.5%
same,"RV (Mean +/- SD), relative tumor volume on day 34","[3]; 25 mg/kg x 14, oral daily, from day 20 to 33",1.6 ± 0.5
same,"MBWL, maximum body weight loss (% of initial)","[3]; 25 mg/kg x 14, oral daily, maximum on d24",1.9% (d24)
same,"RV (Mean +/- SD), relative tumor volume on day 34","[3]; 50 mg/kg x 14, oral daily, from day 20 to 33",0.9 ± 0.3
same,"MBWL, maximum body weight loss (% of initial)","[3]; 50 mg/kg x 14, oral daily, maximum on d34",8.7% (d34)
same,percent inhibition of cancer cells,"[3]; oral administration, BG1-TR1, summary",up to 61%
same,mice found dead,RERF-LC-AI/TXL carcinoma [4],All mice
same,"MBWL, maximum body weight loss (% of initial)","[5]; 25 mg/kg x 14, oral daily",3%
same,% inhibition,[5]; [7],35.2%
same,"RV on day 27 (Mean +/- SD), relative tumor volume",[5]; [7],10.0 ± 1.4
same,body weight losses,[5]; 50 mg/kg daily oral dosing,mild
same,growth inhibition (% inhibition),[5]; 50 mg/kg daily oral dosing,63.9%
same,"MBWL, maximum body weight loss (% of initial)","[5]; 50 mg/kg x 14, oral daily",5%
same,% inhibition,"[5]; 50 mg/kg x 14, oral daily",68.8%
same,"RV on day 27 (Mean +/- SD), relative tumor volume","[5]; 50 mg/kg x 14, oral daily",4.8 ± 1.7
same,growth inhibition (% inhibition),"[5]; lower dose, daily oral",36.2%
same,percent inhibition of cancer cells,"[5]; oral administration, Ma44, summary",≤ 64%
same,"MBWL, maximum body weight loss (% of initial)","RERF-LC-AI carcinoma; 25 mg/kg x 14, oral daily",4%
same,"RV on day 26 (Mean +/- SD), relative tumor volume","RERF-LC-AI carcinoma; 25 mg/kg x 14, oral daily, day 10-23, nude mice",14.1 ± 73
same,% inhibition,"RERF-LC-AI carcinoma; 25 mg/kg x 14, oral daily",64.9%
same,Toxic death,"RERF-LC-AI carcinoma; 50 mg/kg x 14, oral daily, 1 of 6 mice, on day 21",one of six mice
same,"MBWL, maximum body weight loss (% of initial)",RERF-LC-AI carcinoma; [8],14%
same,"RV on day 26 (Mean +/- SD), relative tumor volume",RERF-LC-AI carcinoma; [8],8.2 ± 1.9
same,% inhibition,"RERF-LC-AI carcinoma; 50 mg/kg x 14, oral daily",79.7%
same,Toxic death,"RERF-LC-AI carcinoma; 75 mg/kg x 14, oral daily, 6 mice, on day 17-20",All mice
same,percent inhibition of cancer cells,"RERF-LC-AI carcinoma; oral administration, RERF-LC-AI, summary",≤ 80%
same,change in body weight,[6],Minimal change in body weight
"CC(=O)O[C@H]1C(=O)[C@@]2(C)[C@H]([C@H](OC(=O)c3ccccc3)[C@]3(O)C[C@H](OC(=O)[C@H](O)[C@@H](NC(=O)c4ccccc4)c4ccccc4)C(C)=C1C3(C)C)[C@]1(OC(C)=O)CO[C@@H]1C[C@@H]2O [Paclitaxel, reference compound]","MBWL, maximum body weight loss (% of initial)","RERF-LC-AI/TXL carcinoma [1]; 10 mg/kg x 6, intravenous",0%
same,"RV on day 24 (Mean +/- SD), relative tumor volume","RERF-LC-AI/TXL carcinoma [1]; 10 mg/kg x 6, intravenous, day 10, 12, 14, 17, 19 and 21",31.23 ± 6.69
same,% inhibition,"RERF-LC-AI/TXL carcinoma [1]; 10 mg/kg x 6, intravenous",24.8%
same,"MBWL, maximum body weight loss (% of initial)","RERF-LC-AI/TXL carcinoma [1]; 20 mg/kg x 6, intravenous",0%
same,"RV on day 24 (Mean +/- SD), relative tumor volume",RERF-LC-AI/TXL carcinoma [1]; [9],32.87 ± 10.03
same,% inhibition,"RERF-LC-AI/TXL carcinoma [1]; 20 mg/kg x 6, intravenous",20.9%
same,growth inhibition,RERF-LC-AI/TXL carcinoma [1]; [10],81.8%
same,% inhibition,"[3]; 20 mg/kg x 6, intravenous",8.3%
same,"RV (Mean +/- SD), relative tumor volume on day 34","[3]; 20 mg/kg x 6, intravenous, day 20, 22, 24, 27, 29, 31, nude mice",2.0 ± 0.7
same,"MBWL, maximum body weight loss (% of initial)","[3]; 20 mg/kg x 6, intravenous, maximum on d27",4.5% (d27)
same,antitumor activity,"[3]; 20 mg/kg, maximum tolerated dose for nude mice in this schedule, BG-1 cells",neither significant nor effective
same,"MBWL, maximum body weight loss (% of initial)","[5]; 20 mg/kg x 6, intravenous",3%
same,"RV on day 27 (Mean +/- SD), relative tumor volume","[5]; 20 mg/kg x 6, intravenous, day 11, 13, 15, 18, 20 and 22",2.8 ± 0.4^**e)
same,% inhibition,"[5]; 20 mg/kg x 6, intravenous",81.8%
same,antitumor activity,[5]; [10],neither significant nor effective
same,"MBWL, maximum body weight loss (% of initial)","RERF-LC-AI carcinoma; 20 mg/kg x 6, intravenous",7%
same,"RV on day 26 (Mean +/- SD), relative tumor volume",RERF-LC-AI carcinoma; [9],3.1 ± 0.8**^e)
same,% inhibition,"RERF-LC-AI carcinoma; 20 mg/kg x 6, intravenous",92.2%

# — patent US20050272766A1, “1-Glyoxylamide indolizines for treating lung and ovarian cancer” (Synta Pharmaceuticals Corp., priority 2004, published 2005)
